Source: article PMC5464627, “Design of short peptides to block BTLA/HVEM interactions for promoting anticancer T-cell responses” (PLoS ONE, 2017)
Positions of bridges follow the written chain, without caps; N, C: chain ends.

Columns and labels:
[1] = test system: BTLA/HVEM interaction (BTLA-Fc coated, HVEM-Fc); experiment: Competitive BTLA/HVEM ELISA; type: binding, human; details: peptide or amino acid at 5, 1 and 0.1 mg/mL, 2 h at 37°C; relative to PBS (0%) and anti-BTLA 7.1 mAb (100%); at least two experiments in triplicate
Source text: (§1) The recombinant human BTLA protein used in affinity tests was purchased form Novoprotein (Company product code: C563). For ELISA, recombinant human BTLA-Fc, HVEM-Fc as well as anti-human BTLA (#7.1) blocking monoclonal antibody (mAb) and anti-human HVEM (#11.8) non-blocking mAb were described previously. Anti-HVEM mAb was biotinylated using the Biotin Labeling Kit-NH2 (Abnova, #KA0003), according manufacturer’s instruction.
96-well round bottom plates (medium binding; Greiner Bio-One) were coated with 400 ng/well of recombinant BTLA-Fc protein in PBS (50 μL/well) and incubated overnight at 4°C. Wells were washed twice with PBS-T (phosphate buffer saline with 0.1% Tween-20, pH 7.4) and blocked with 1% milk in PBS-T for 1 hour at 37°C. […] Maximum binding of HVEM to BTLA was controlled by adding 1% milk/PBS-T to negative control wells, whereas maximum inhibition was monitored by adding anti-BTLA 7.1 mAb (0.1 μg/well). Next, the plate was washed and incubated with recombinant HVEM-Fc protein at 400 ng/well in 1% milk/PBS-T for 1 hour at 37°C. Biotinylated anti-HVEM 11.8 antibody was then added (biotinylated preparation diluted at 1/10 000 in 1% milk/PBS-T) and incubated for 1 hour at 37°C. Streptavidin horseradish peroxidase (Dako) was finally added at a 1/8000 dilution in 1% BSA/PBS-T for 30 min at 37°C and detected with TMB (Biorad). The substrate reaction was blocked with 0.2 M H2SO4 and the absorbance was read at 450 nm and 630 nm. […] Statistical analysis of the results was performed using the one-way analysis of variance (one-way ANOVA).

[2] = test system: 293T cells expressing BTLA, binding of rhHVEM-Fc; experiment: BTLA/HVEM interaction cell line assay (flow cytometry); type: cell-based; details: 293T cells expressing human BTLA pre-incubated with 5 mg/mL for 1 h at 4°C, then rhHVEM-Fc 8 μg/ml and AF647 anti-human IgG; at least two experiments in triplicate
Protocol: 293T cells expressing BTLA (generous gift from Dr. C. Krummenacher, University of Pennsylvania, USA) were maintained in culture with RPMI 10% FCS supplemented with 0.2 mg/ml hygromycin B. 2x10^5 293T cells expressing BTLA were incubated with […] 8μg/ml in PBS 0.5% BSA for 30min at 4°C. Cells were then washed and incubated with goat anti-human Fc conjugated with AF647 for 20min at 4°C (Jackson ImmunoResearch, #109-606-170). Inhibition of HVEM-BTLA binding by different peptides was assessed by pre-incubating the cells with the different peptides at 5 mg/ml for 1h at 4°C. BTLA expression was controlled by anti-BTLA APC-conjugated antibody (Biolegend, #344510). Maximum inhibition of binding was determined by adding anti-BTLA7.1 antibody for 1h at 4°C at 2μg/ml before adding […]. Sample acquisition was performed on the Gallios Flow-Cytometer (Beckman Coulter) and data were analyzed using the FlowJo Software (TreeStar).  Fig 7 Blocking capacity of HVEM(23-39) fragment and free amino acids in a cellular assay. 293T cells expressing human BTLA were incubated with peptides or free amino acids (5mg/mL) prior labeling with […] AF647-conjugated anti-human IgG antibody (at least two experiments in triplicate).

[3] = test system: recombinant human BTLA protein; experiment: Microcolumn affinity test (BTLA-Sepharose, MALDI-MS of fractions); type: binding; details: for Interaction with BTLA immobilised in microcolumn (in words): BTLA-Sepharose microcolumn, 2 h at 25°C, pH 7.4, MS of elution fraction; for Elution [M+H]+1 (peptide signal in elution fraction = complex with BTLA formed; - = no signal): BTLA immobilised on NHS-Sepharose microcolumn, peptide incubated 2 h at 25°C in NH4HCO3 pH 7.4, eluted with 0.1% TFA, MALDI TOF/TOF
Protocol: as §1
The immobilization of BTLA protein in a microcolumn was performed using the NHS-activated acid-coupled Sepharose 4B (Sigma Aldrich). BTLA protein was dissolved in 100 μl of coupling buffer (0.2 M NaHCO3, 0.5 M NaCl, pH 8.3) and was added to 0.06 g NHS-activated Sepharose in 100 μl of coupling buffer. The coupling reaction was performed for 1 hour in 25°C and the mixture was transferred into the microcolumn (MoBiTec, Goettingen, Germany). The microcolumn with immobilized protein was washed alternately with 10 ml of solution blocking buffer (0.1 M amino ethanol, 0.5 M NaCl, pH 8.3) and washing buffer (0.1 M CH3COONa, 0.5 M NaCl, pH 4). This step was repeated 4 times. The microcolumn was stored in PBS (pH 7.4).
Peptide affinity assay using NHS-activated Sepharose microcolumn was already described elsewhere. The peptides were added onto BTLA-Sepharose column equilibrated in ammonium hydrogen carbonate (NH4HCO3, pH 7.4) and incubated for 2 h at 25°C with gentle shaking. After this time the unbound peptide was removed and the column was washed with […] NH4HCO3 and 20 ml of H2O. Dissociation of the protein—peptide complex was performed using 0.1% TFA in H2O (2 x 0.5 ml) by 15 minutes. All fractions were analyzed using mass spectrometry (MALDI TOF/TOF™ 5800, AB SCIEX).
Fig 2 Microcolumn affinity test. Microcolumn affinity test results for binding of HVEM(23–39) fragment to BTLA: (A) supernatant, (B) last wash and (C) elution fractions. The MS measurements were done with the use of MALDI TOF/TOF 5800 (ABSciex, Germany). As a matrix α-cyano-4-hydroxycinnamic acid (CHCA, 10 mg/ml, Sigma-Aldrich) was used. The measurements were done in reflector positive mass mode with previous mass calibration with commercial standard peptide mixture (The Peptide Mass Standards Kit for Calibration of AB SCIEX MALDI-TOF™ Instruments).

[4] = Ellman's assay of free thiols; type: physicochemical; details: for Presence of free thiol groups: DTNB, 0.1 M sodium phosphate pH 7.4, 1 mM EDTA, absorbance at 412 nm
Protocol: The presence of free thiols was investigated using Ellman’s assay. DTNB (Sigma Aldrich) was first dissolved in reaction buffer (0.1 M sodium phosphate, pH 7.4, containing 1 mM EDTA) at a concentration of 4 mg/ml. Then peptides and recombinant BTLA-Fc, alone or mixed together (ratio 1:1) were added in DTNB reaction buffer. After 15 minutes of incubation, the SH content of protein samples was then assessed by the measurement of absorbance at 412 nm. For each sample, the absorbance value from the blank was subtracted.

[5] = biological target: T1, recombinant human BTLA-Fc (human, UniProt Q7Z6A9 31-157); experiment: ELISA; competitive: BTLA-Fc coated at 400 ng/well; peptides in 1% milk/PBS-T 2 h at 37°C; washed; HVEM-Fc 400 ng/well 1 h at 37°C; detected with biotinylated anti-HVEM 11.8 and streptavidin-HRP; percent inhibition relative to anti-BTLA 7.1 mAb (100%) and buffer (0%); details: both partners purified
T1 construct: B and T lymphocyte attenuator (BTLA), human, fused to Fc; also called rhBTLA-Fc
T1 sequence (looked up): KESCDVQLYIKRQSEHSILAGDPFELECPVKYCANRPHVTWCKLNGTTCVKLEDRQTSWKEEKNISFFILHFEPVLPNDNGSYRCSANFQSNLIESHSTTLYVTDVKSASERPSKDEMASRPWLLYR

N[C@@H](CS)C(=O)O [cysteine, reference compound]
Inhibition of BTLA/HVEM ligation in ELISA (in words) [1]: prevented partially the binding of HVEM | Blocking of BTLA/HVEM binding in cellular assay (GMFI, in words) [2]: blocked BTLA/HVEM complex formation

N[C@@H](CSSC[C@H](N)C(=O)O)C(=O)O [cystine, reference compound]
Inhibition of BTLA/HVEM ligation in ELISA (in words) [1]: the inhibitory properties were not observed

CSCC[C@H](N)C(=O)O [methionine, reference compound]
Inhibition of BTLA/HVEM ligation in ELISA (in words) [1]: the inhibitory properties were not observed

Ac-ELCAGPVTRKVECTYGE-NH2 [Scrambled peptide, scrambled control of HVEM(23–39), Ac-…-NH2, reference compound]
Interaction with BTLA immobilised in microcolumn (in words) [3]: did not interact with BTLA immobilized in microcolumn | Presence of free thiol groups [4]: contains free thiol groups | Inhibition of BTLA/HVEM ligation in ELISA (in words) [1]: has no effect

Ac-ELTGTVCEP-NH2 [HVEM(31–39), 9 amino acid-long HVEM fragment 31–39]
Elution [M+H]+1 (peptide signal in elution fraction = complex with BTLA formed; - = no signal) [3]: 989.3 | Inhibition of BTLA/HVEM ligation in ELISA (in words) [1]: showed a lower percentage of inhibition than the HVEM(23–39)

Ac-ELTGTVS^37EP-NH2 [HVEM(31–39) C37S, HVEM(31–39) analog with Cys37 replaced by serine]
Inhibition of BTLA/HVEM ligation in ELISA (in words) [1]: no blocking capacity

Ac-YRVKEACGELTGTVCEP-NH2 (disulfide 7-15 (inferred); SMILES CC(=O)N[C@@H](Cc1ccc(O)cc1)C(=O)N[C@@H](CCCNC(=N)N)C(=O)N[C@H](C(=O)N[C@@H](CCCCN)C(=O)N[C@@H](CCC(=O)O)C(=O)N[C@@H](C)C(=O)N[C@H]1CSSC[C@@H](C(=O)N[C@@H](CCC(=O)O)C(=O)N2CCC[C@H]2C(N)=O)NC(=O)[C@H](C(C)C)NC(=O)[C@H]([C@@H](C)O)NC(=O)CNC(=O)[C@H]([C@@H](C)O)NC(=O)[C@H](CC(C)C)NC(=O)[C@H](CCC(=O)O)NC(=O)CNC1=O)C(C)C) [HVEM(23–39) (C29-C37), cyclic HVEM(23–39) with disulfide bridge, oxidized cysteines]
Elution [M+H]+1 (peptide signal in elution fraction = complex with BTLA formed; - = no signal) [3]: 1893.9 | Interaction with BTLA immobilised in microcolumn (in words) [3]: interacted with BTLA in affinity test | Inhibition of BTLA/HVEM ligation in ELISA (in words) [1]: no blocking of BTLA/HVEM interaction was observed

Ac-YRVKEACGELTGTVCEP-NH2 [HVEM(23–39), HVEM fragment 23–39, Ac-…-NH2, free sulfhydryl groups]
Interaction with BTLA immobilised in microcolumn (in words) [3]: complex between BTLA and HVEM(23–39) was formed | Presence of free thiol groups [4]: observed free thiol groups | Concentration of free thiol groups after 2 hours of incubation, peptide alone ([4]; Ellman's assay, pH 7.4, peptide alone, 2 hours, suggests a fraction of the peptide is oxidized): lower | Concentration of free thiol groups over time, peptide incubated with BTLA-Fc ([4]; Ellman's assay, pH 7.4, peptide mixed with recombinant BTLA-Fc (ratio 1:1)): decrease in the concentration of free thiol groups over time, which was more pronounced than in the condition where the peptide was alone | Inhibition of BTLA/HVEM ligation in ELISA (in words) [1]: can partially prevent the ligation of HVEM to BTLA, in a dose dependent manner | Blocking of BTLA/HVEM binding in cellular assay (GMFI, in words) [2]: almost no blocking of the BTLA/HVEM binding was observed

Ac-YRVKEAS^29GELTGTVCEP-NH2 [HVEM(23–39) C29S, HVEM(23–39) analog with Cys29 replaced by serine]
Elution [M+H]+1 (peptide signal in elution fraction = complex with BTLA formed; - = no signal) [3]: 1879.7

Ac-YRVKEAY^29GELTGTVCEP-NH2 [HVEM(23–39) C29Y, HVEM(23–39) analog with Cys29 replaced by tyrosine]
Elution [M+H]+1 (peptide signal in elution fraction = complex with BTLA formed; - = no signal) [3]: 1955.7

C29A: single alanine-substituted HVEM(23–39) variant, cysteine 29 replaced by alanine (Ac-YRVKEAAGELTGTVCEP-NH2)
Inhibition of BTLA/HVEM ligation in ELISA (in words) [1]: significant reduction of the inhibition

C37A: single alanine-substituted HVEM(23–39) variant, cysteine 37 replaced by alanine (Ac-YRVKEACGELTGTVAEP-NH2)
Inhibition of BTLA/HVEM ligation in ELISA (in words) [1]: significant reduction of the inhibition

B1: HVEM(31–39) (peptide)
peptide: Ac-ELTGTVCEP-NH2
notes: herpes virus entry mediator (HVEM), human, residues 31-39; also called HVEM (31–39) fragment; source: synthetic peptide (SPPS, RP-HPLC purified)
binding result [5]: binds

B2: HVEM(23–39) peptide (peptide)
peptide: YRVKEACGELTGTVCEP
modifications: not fully specified; N-terminal acetyl (Ac-); C-terminal amide (-NH2)
notes: herpes virus entry mediator (HVEM), human, residues 23-39 of the CRD1 domain; Linear, with two free sulfhydryl groups; also called HVEM(23–39) fragment; wild-type peptide HVEM(23–39); source: synthetic peptide (SPPS, RP-HPLC purified)
binding result [5]: binds
